Literature values, collected in patent US11058694B2, “Nutritional supplements for growth enhancement in pre-pubertal adolescents” (Nutritional Growth Solutions LTD, priority 2014, dated 2021).

Key:
[1] = versus placebo, daily syrup for six months
[2] = 33 randomized controlled intervention trials
[3] = 6-12 months follow-up, normal serum zinc levels

[Fe] [iron]
increase in hemoglobin concentrations, effect size (iron interventions, 95% CI: 0.46, 2.51): 1.49
effect of supplementation intervention on child growth (iron supplementation): no significant effect

vitamin A
effect of supplementation interventions on growth (vitamin A supplementation): no significant effect on growth

[Zn] [zinc]
mean height for age Z-score [1]: decreased to a greater extent than placebo
responses in height and in weight increments [2]: significant positive responses
height or weight-SDS [3]: did not significantly changed
